For data set [1] the following is noted: cited from earlier work.
Data set [2] can be described thus: Solubility of phytosphingosine in solvents. Format: physicochemical. The conditions noted are these: solvent: mixture of water, lactic acid and a willow bark extract.

Data on 1 compound can be found in US6403111B1, “Method for preparing aqueous phytosphingosine solution” (Doosan Corporation, priority 2000, dated 2002).

In the case of `CCCCCCCCCCCCCC[C@@H](O)[C@@H](O)[C@@H](N)CO` [Phytosphingosine, phytosphingosine], the “Solubility in isocetyl alcohol” value in data set [1] (isocetyl alcohol) is 1 wt %. Further, the Solubility in water entry in data set [1] (water) is reported as “not soluble in water at all”. The “Amount solubilized to give a completely clear solution” value in data set [2] is recorded as 5-10 weight %.
